Data reported in the Kinase Knowledgebase extract (Sharma et al. 2016).

Target: MAPK14 (UniProt Q16539)
Assay: p38 alpha Inhibition
Conditions: for inhibition: concentration not given here

Sequence of MAPK14 (Q16539 whole entry, looked up): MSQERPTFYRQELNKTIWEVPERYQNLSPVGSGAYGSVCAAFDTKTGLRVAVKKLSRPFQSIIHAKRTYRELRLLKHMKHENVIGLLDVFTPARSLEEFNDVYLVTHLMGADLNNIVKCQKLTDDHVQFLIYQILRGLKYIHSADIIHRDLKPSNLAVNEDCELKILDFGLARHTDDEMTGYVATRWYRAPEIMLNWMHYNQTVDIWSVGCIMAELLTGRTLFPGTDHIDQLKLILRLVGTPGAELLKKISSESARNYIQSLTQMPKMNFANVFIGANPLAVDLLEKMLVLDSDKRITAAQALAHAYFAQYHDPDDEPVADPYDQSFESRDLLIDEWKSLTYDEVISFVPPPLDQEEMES

| SMILES | inhibition [%] | IC50 [nM] |
| --- | --- | --- |
| Oc1cccc(Nc2nc(-c3ccccc3)nc3ccccc23)c1 | 19 |  |
| COc1cc2nc(-c3ccccc3Cl)nc(Nc3ccncc3)c2cc1OC | 97 |  |
| COc1ccc(Nc2nc(-c3ccccc3)nc3ccccc23)cc1 | 16 |  |
| c1ccc(-c2nc(Nc3ncccn3)c3ccccc3n2)cc1 | 3 |  |
| Fc1ccccc1-c1nc(Nc2ccncc2)c2ccccc2n1 | 99 | 114 |
| Oc1ccc(Nc2nc(-c3ccccc3)nc3ccccc23)cc1 | 63 |  |
| c1ccc(-c2nc(Nc3cccc4[nH]ccc34)c3ccccc3n2)cc1 | 72 |  |
| c1ccc(-c2nc(NCCc3ccccn3)c3ccccc3n2)cc1 | 16 |  |
| CN(C)c1ccc(CNc2nc(-c3ccccc3)nc3ccccc23)cc1 | 25 |  |
| CC(C)N(c1ccncc1)c1nc(-c2ccccc2)nc2ccccc12 | 69 |  |
| N#Cc1cccc(Nc2nc(-c3ccccc3)nc3ccccc23)c1 | 13 |  |
| Fc1ccc(F)c(CNc2nc(-c3ccccc3)nc3ccccc23)c1 | 63 |  |
| OCCc1ccc(Nc2nc(-c3ccccc3)nc3ccccc23)cc1 | 34 |  |
| CCC(C)c1ccc(Nc2nc(-c3ccccc3)nc3ccccc23)cc1 (stereo not drawn) | 10 |  |
| O=[N+]([O-])c1ccc2nc(-c3ccccc3F)nc(Nc3ccncc3)c2c1 | 91 |  |
| Fc1ccc(-c2nc(Nc3ccncc3)c3ccccc3n2)cc1 | 92 | 439 |
| COc1cccc(Nc2nc(-c3ccccc3)nc3ccccc23)c1 | 95 | 578 |
| Brc1ccccc1-c1nc(Nc2ccncc2)c2ccccc2n1 | 99 | 285 |
| Nc1ccc2c(Nc3ccncc3)nc(-c3ccccc3F)nc2c1 | 94 |  |
| c1ccc(-c2nc(NCc3cccnc3)c3ccccc3n2)cc1 | 54 |  |
| Fc1ccccc1-c1nc(Nc2ccncc2)c2cccnc2n1 | 97 |  |

| SMILES | inhibition [%] | IC50 [nM] |
| --- | --- | --- |
| c1ccc(-c2nc(Nc3ccncc3)c3ccccc3n2)cc1 |  | 457 |
| COc1ccc(CNc2ccc3nc(-c4ccccc4F)nc(Nc4ccncc4)c3c2)cc1 | 96 |  |
| c1ccc(-c2nc(Nc3cccnc3)c3ccccc3n2)cc1 | 45 |  |
| Cc1ccccc1-c1nc(Nc2ccncc2)c2ccccc2n1 | 99 | 345 |
| c1ccc(Nc2nc(-c3ccccc3)nc3ccccc23)cc1 | 45 |  |
| Nc1ccc2nc(-c3ccccc3F)nc(Nc3ccncc3)c2c1 |  | 168 |
| COc1cccc(CNc2ccc3nc(-c4ccccc4F)nc(Nc4ccncc4)c3c2)c1 | 96 |  |
| COc1ccccc1Nc1nc(-c2ccccc2)nc2ccccc12 | 37 |  |
| COc1ccc(N(c2ccncc2)c2nc(-c3ccccc3)nc3ccccc23)cc1 | 47 |  |
| c1ccc(-c2nc(NCc3ccncc3)c3ccccc3n2)cc1 | 64 | 1200 |
| Clc1cccc(Cl)c1-c1nc(Nc2ccncc2)c2ccccc2n1 | 85 |  |
| c1ccc(-c2nc(Nc3ccc4[nH]ccc4c3)c3ccccc3n2)cc1 | 70 |  |
| c1ccc(-c2nc(Nc3ccncn3)c3ccccc3n2)cc1 | 97 |  |
| Clc1cccc(-c2nc(NCc3ccccc3)c3ccccc3n2)c1 | 37 |  |
| Oc1ccccc1Nc1nc(-c2ccccc2)nc2ccccc12 | 28 |  |
| Fc1cccc(F)c1-c1nc(Nc2ccncc2)c2ccccc2n1 | 97 |  |
| Clc1ccc(-c2nc(NCc3ccncc3)c3ccccc3n2)cc1 | 51 |  |
| Clc1ccccc1-c1nc(Nc2ccncc2)c2ccccc2n1 | 100 | 170 |
| Fc1cccc(-c2nc(Nc3ccncc3)c3ccccc3n2)c1 | 68 |  |
| COc1ccc(-c2nc(Nc3ccncc3)c3ccccc3n2)cc1 | 5 |  |
